Laboratory results from ChEMBL document CHEMBL6103613 (J Med Chem, 2025).
≈ marks a conversion by molar mass, not a printed value. Calls of active or inactive are those of the source. The calls are words filed in the database; no cut-off is given here.

Columns and labels:
Staphylococcus aureus [1] = assay: Antimicrobial activity against Staphylococcus aureus ATCC 25923 assessed as inhibition of visible bacterial growth incubated for 18 hrs by CLSI based analysis; format: functional
Staphylococcus aureus [2] = assay: Antimicrobial activity against methicillin-resistant Staphylococcus aureus ATCC 43300 assessed as inhibition of visible bacterial growth incubated for 18 hrs by CLSI based analysis; format: functional
Staphylococcus aureus [3] = assay: Antimicrobial activity against methicillin-resistant Staphylococcus aureus clinical isolate 2 assessed as inhibition of visible bacterial growth incubated for 18 hrs by CLSI based analysis; format: functional
Staphylococcus aureus [4] = assay: Antimicrobial activity against methicillin-resistant Staphylococcus aureus clinical isolate 3 assessed as inhibition of visible bacterial growth incubated for 18 hrs by CLSI based analysis; format: functional
Staphylococcus aureus [5] = assay: Antimicrobial activity against methicillin-resistant Staphylococcus aureus clinical isolate 4 assessed as inhibition of visible bacterial growth incubated for 18 hrs by CLSI based analysis; format: functional
Bacillus subtilis = assay: Antimicrobial activity against Bacillus subtilis ATCC 23875 assessed as inhibition of visible bacterial growth incubated for 18 hrs by CLSI based analysis; format: functional
Enterococcus faecalis = assay: Antimicrobial activity against Enterococcus faecalis ATCC 19433 assessed as inhibition of visible bacterial growth incubated for 18 hrs by CLSI based analysis; format: functional
Enterococcus faecium = assay: Antimicrobial activity against vancomycin-resistant Enterococcus faecium assessed as inhibition of visible bacterial growth incubated for 18 hrs by CLSI based analysis; format: functional
Enterococcus gallinarum = assay: Antimicrobial activity against Enterococcus gallinarum ATCC 49573 assessed as inhibition of visible bacterial growth incubated for 18 hrs by CLSI based analysis; format: functional
[6] = tested on: Staphylococcus epidermidis; assay: Antimicrobial activity against Staphylococcus epidermidis ATCC 12228 assessed as inhibition of visible bacterial growth incubated for 18 hrs by CLSI based analysis; format: functional
Staphylococcus aureus [7] = assay: Antimicrobial activity against Staphylococcus aureus assessed as reduction in bacterial growth at 2 times MIC incubated for 24 hrs by time-killing assay; format: functional, organism-based
Staphylococcus aureus [8] = assay: Antibacterial activity against methicillin-resistant Staphylococcus aureus infected in kunming mouse pneumonia model assessed as decrease in IL-6 expression in lung at 5 mg/kg, ip measured upto 8 days; format: functional, organism-based; conditions: time <= 8.0 day
Staphylococcus aureus [9] = assay: Antibacterial activity against methicillin-resistant Staphylococcus aureus infected in kunming mouse pneumonia model assessed as decrease in IL-10 expression in lung at 5 mg/kg, ip measured upto 8 days; format: functional, organism-based; conditions: time <= 8.0 day
Staphylococcus aureus [10] = assay: Antibacterial activity against methicillin-resistant Staphylococcus aureus infected in kunming mouse pneumonia model assessed as decrease in TNF-alpha expression in lung at 5 mg/kg, ip measured upto 8 days; format: functional, organism-based; conditions: time <= 8.0 day
Staphylococcus aureus [11] = assay: Antibacterial activity against methicillin-resistant Staphylococcus aureus infected in kunming mouse keratitis model assessed as log reduction in colony count at 5 mg/kg, ip measured upto 8 days; format: functional; conditions: time <= 8 day
Staphylococcus aureus [12] = assay: Drug resistance, ratio of MIC for Staphylococcus aureus after 6 passages to MIC for Staphylococcus aureus during first exposure; format: functional
Staphylococcus aureus [13] = assay: Drug resistance, ratio of MIC for Staphylococcus aureus after 12 passages to MIC for Staphylococcus aureus during first exposure; format: functional
Staphylococcus aureus [14] = assay: Drug resistance, ratio of MIC for Staphylococcus aureus after 15 passages to MIC for Staphylococcus aureus during first exposure; format: functional
Staphylococcus aureus [15] = assay: Drug resistance, ratio of MIC for Staphylococcus aureus after 21 passages to MIC for Staphylococcus aureus during first exposure; format: functional

Compound | MIC (Staphylococcus aureus [1]) | MIC (Staphylococcus aureus [2]) | MIC (Staphylococcus aureus [3]) | MIC (Staphylococcus aureus [4]) | MIC (Staphylococcus aureus [5]) | MIC (Bacillus subtilis) | MIC (Enterococcus faecalis) | MIC (Enterococcus faecium) | MIC (Enterococcus gallinarum) | MIC [6] | Activity (Staphylococcus aureus [7]) | Activity (Staphylococcus aureus [8]) | Activity (Staphylococcus aureus [9]) | Activity (Staphylococcus aureus [10]) | FC (Staphylococcus aureus [11]) | Ratio (Staphylococcus aureus [12]) | Ratio (Staphylococcus aureus [13]) | Ratio (Staphylococcus aureus [14]) | Ratio (Staphylococcus aureus [15])
CN[C@H](CC(C)C)C(=O)N[C@H]1C(=O)N[C@@H](CC(N)=O)C(=O)N[C@H]2C(=O)N[C@H]3C(=O)N[C@H](C(=O)N[C@H](C(=O)O)c4cc(O)cc(O)c4-c4cc3ccc4O)[C@H](O)c3ccc(c(Cl)c3)Oc3cc2cc(c3O[C@@H]2O[C@H](CO)[C@@H](O)[C@H](O)[C@H]2O[C@H]2C[C@](C)(N)[C@H](O)[C@H](C)O2)Oc2ccc(cc2Cl)[C@H]1O [VANCOMYCIN] | 0.78 µg/mL (≈ 0.538 µM) | 0.78 µg/mL (≈ 0.538 µM) | 3.13 µg/mL (≈ 2.16 µM) | 0.78 µg/mL (≈ 0.538 µM) | 1.56 µg/mL (≈ 1.08 µM) | 0.39 µg/mL (≈ 0.269 µM) | 0.39 µg/mL (≈ 0.269 µM) | 25 µg/mL (≈ 17.3 µM) | 3.13 µg/mL (≈ 2.16 µM) | 0.39 µg/mL (≈ 0.269 µM) | inactive | Active | Active | Active |  |  |  |  | 
CC(=O)NC[C@H]1CN(c2ccc(N3CCOCC3)c(F)c2)C(=O)O1 [LINEZOLID] | 1.56 µg/mL (≈ 4.62 µM) | 1.56 µg/mL (≈ 4.62 µM) | 3.13 µg/mL (≈ 9.28 µM) | 1.56 µg/mL (≈ 4.62 µM) | 1.56 µg/mL (≈ 4.62 µM) | 1.56 µg/mL (≈ 4.62 µM) | 1.56 µg/mL (≈ 4.62 µM) | 1.56 µg/mL (≈ 4.62 µM) | 1.56 µg/mL (≈ 4.62 µM) | 0.39 µg/mL (≈ 1.16 µM) |  |  |  |  | 0.864 |  |  |  | 
CC1(C)S[C@@H]2[C@H](NC(=O)[C@H](N)c3ccc(O)cc3)C(=O)N2[C@H]1C(=O)O [AMOXICILLIN] |  |  |  |  |  |  |  |  |  |  |  |  |  |  |  | 10 | 30 | 250 | 250
